Experimental data published in patent US9334246B2, “Substituted triazines for malaria treatment and chemoprophylaxis” (The United States of America, as represented by the …, priority 2013, dated 2016).

How the values were obtained:
Type in all cases: cell-based, Plasmodium falciparum
P. falciparum W2 = experiment: Malaria SYBR Green Fluorescence Assay, W2 strain; details: for W2: SYBR Green Assay
P. falciparum D6 = experiment: Malaria SYBR Green Fluorescence Assay, D6 strain; details: for D6: SYBR Green Assay
P. falciparum C235 = experiment: Malaria SYBR Green Fluorescence Assay, C235 strain; details: for C235: SYBR Green Assay

| Compound | W2 (SYBR Green Assay IC50) (P. falciparum W2) [µg/mL] | D6 (SYBR Green Assay IC50) (P. falciparum D6) [µg/mL] | C235 (SYBR Green Assay IC50) (P. falciparum C235) [µg/mL] | W2 (P. falciparum W2) [ng/mL] | D6 (P. falciparum D6) [ng/mL] | C235 (P. falciparum C235) [ng/mL] |
| --- | --- | --- | --- | --- | --- | --- |
| COC1═CC(═CC═C1)C1═NC(═NC(═N1)C(Cl)(Cl)Cl)N1CCC(N)CC1 [Compound 629] | 0.015 | 0.021 | 0.019 |  |  |  |
| NC1CCN(CC1)C1═NC(═NC(═N1)C(Cl)(Cl)Cl)C1═CC(Cl)═CC(Cl)═C1 [Compound 631] | 0.153 | 0.291 | 0.219 |  |  |  |
| CCN1CCC(CNc2nc(-c3ccc(OC)c4ccccc34)nc(C(Cl)(Cl)Cl)n2)CC1 [Cmpd 279] |  |  |  | 20 | 66 | 77 |
| CCN1CCC(CNc2nc(-c3cccc(Cl)c3)nc(C(Cl)(Cl)Cl)n2)CC1 [Cmpd 339] |  |  |  | 14 | 34 | 41 |
| CCN1CCCC(Nc2nc(-c3ccc(SC)cc3)nc(C(Cl)(Cl)Cl)n2)C1 (stereo not drawn) [Cmpd 88] |  |  |  | 69 | 79 | 77 |
| ClC(Cl)(Cl)c1nc(NCCCN2CCCC2)nc(-c2ccc(-c3ccccc3)cc2)n1 [Cmpd 197] |  |  |  | 105 | 128 | 137 |
| COc1cc(OC)cc(-c2nc(NCCCN3CCCC3)nc(C(Cl)(Cl)Cl)n2)c1 [Cmpd 477] | 0.023 | 0.077 | 0.041 |  |  |  |
| CSc1ccc(-c2nc(N3CCN(CCO)CC3)nc(C(Cl)(Cl)Cl)n2)cc1 [Cmpd 309] |  |  |  | 122 | 188 | 438 |
| CSc1ccc(cc1)c2nc(nc(n2)C(Cl)(Cl)Cl)N3CC4CC3CN4 [Compound 723] |  |  |  | 92 | 128 | 118 |
| COC1═C2C═CC═CC2═C(C═C1)C1═NC(NC2CCN(CC(C)C)CC2)═NC(═N1)C(Cl)(Cl)Cl [Compound 703] |  |  |  | 237 | 324 | 338 |
| COc1ccc(-c2nc(N3CCCNCC3)nc(C(Cl)(Cl)Cl)n2)c2ccccc12 [Cmpd 281] |  |  |  | 66 | 148 | 205 |
| CS(═O)(═O)c1ccc(cc1)c2nc(Nc3ccc(cc3)n4cccn4)nc(n2)C(Cl)(Cl)Cl [Compound 689] |  |  |  | 58 | 94 | 171 |
| CC(=O)Nc1cccc(Nc2nc(-c3ccc(S(C)(=O)=O)cc3)nc(C(Cl)(Cl)Cl)n2)c1 [Compound 691, CC(═O)Nc1cccc(Nc2nc(nc(n2)C(Cl)(Cl)Cl)c3ccc(cc3)S(═O)(═O)C)c1] |  |  |  | 256 | 341 | 705 |
| CN1CCN(c2nc(-c3ccccc3[N+](=O)[O-])nc(C(Cl)(Cl)Cl)n2)CC1 [Cmpd 549] | 0.236 | 0.503 | 0.663 |  |  |  |
| CN1CCC(CNc2nc(-c3ccc(Cl)c(Cl)c3)nc(C(Cl)(Cl)Cl)n2)CC1 [Cmpd 505] | 0.017 | 0.029 | 0.02 |  |  |  |
| COc1cc(OC)cc(-c2nc(NCC3(N)CCCC3)nc(C(Cl)(Cl)Cl)n2)c1 [Cmpd 530] | 0.014 | 0.013 | 0.013 |  |  |  |
| CC(C)(C)c1ccc(cc1)c2nc(NCc3cccc(CN4CCCC4)c3)nc(n2)C(Cl)(Cl)Cl [Compound 735] |  |  |  | 60.65 | 207.4 | 257.5 |
